Reference: the supplement of paper PMC10307832

Tests used:
Assay in all cases: relative viability (nuclei count vs DMSO), 5 days (fraction); higher = more cells survive
[1] = compound: C1=CC=C(C(=C1)C2=CC=C(C=C2)C3=CSC4=C3C(=C(C(=O)N4)C#N)O)O
Summary of the method: (§1)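 Viability was read as treated-well nuclei divided by vehicle-well nuclei, using the median across plates. Lung cancer cell lines in 1536-well plates were kept overnight at 37 °C, pinned with five √10-spaced library-drug doses, and after 5 days were Hoechst-stained, imaged at 4× and counted in MetaXpress. Plates passed only with control CV below 25% and at least one doubling.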

Ricolinostat = compound: O=C(CCCCCCNC(=O)c1cnc(N(c2ccccc2)c2ccccc2)nc1)NO [Ricolinostat]
Summary of the method: as §1

TGX 221 = compound: CC1=CN2C(=O)C=C(N=C2C(=C1)C(C)NC3=CC=CC=C3)N4CCOCC4 [TGX 221]
Summary of the method: as §1

[2] = compound: C1=CC=C(C(=C1)C2=CC=C(C=C2)C3=CSC4=C3C(=C(C(=O)N4)C#N)O)O + COc1cc2c(Oc3ccc(NC(=O)C4(C(=O)Nc5ccc(F)cc5)CC4)cc3F)ccnc2cc1OCCCN1CCOCC1 [Foretinib] (partner 0.25 µM)
Summary of the method: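 Values are medians from duplicate plates. Each reflects relative viability, defined as the nuclei count of treated wells over that of vehicle wells. Lung cancer cell lines in 1536-well plates were pin-tool dosed one day after seeding with one drug alone or with a fixed anchor-drug dose plus five library-drug doses (not always all listed) in √10 steps, then fixed, stained and imaged at 4× after 5 days.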

| Cell Line | relative viability ([1]; 0.08 µM) | relative viability ([1]; 0.253 µM) | relative viability ([1]; 0.8 µM) | relative viability ([1]; 2.53 µM) | relative viability ([1]; 8 µM) | relative viability (Ricolinostat; 0.08 µM) | relative viability (Ricolinostat; 0.253 µM) | relative viability (Ricolinostat; 0.8 µM) | relative viability (Ricolinostat; 2.53 µM) | relative viability (TGX 221; 0.08 µM) | relative viability (TGX 221; 0.253 µM) | relative viability (TGX 221; 0.8 µM) | relative viability (TGX 221; 2.53 µM) | relative viability (TGX 221; 8 µM) | relative viability ([2]; first compound 0.08 µM) | relative viability ([2]; first compound 0.253 µM) | relative viability ([2]; first compound 0.8 µM) | relative viability ([2]; first compound 2.53 µM) | relative viability ([2]; first compound 8 µM) |
| --- | --- | --- | --- | --- | --- | --- | --- | --- | --- | --- | --- | --- | --- | --- | --- | --- | --- | --- | --- |
| LC-2-ad | 0.824 | 1.05 | 0.898 | 1.04 | 0.906 | 0.866 | 0.964 | 0.946 | 0.683 | 0.962 | 1.01 | 1.01 | 1.02 | 0.92 | 0.877 | 1.06 | 0.96 | 0.968 | 0.753 |
| NCI-H2347 | 0.996 | 1.15 | 0.989 | 1.07 | 0.916 | 0.911 | 0.964 | 0.994 | 0.92 | 0.898 | 0.987 | 0.986 | 0.88 | 0.851 | 0.845 | 0.923 | 0.951 | 1.01 | 0.735 |
| NCI-H2009 | 0.971 | 1.01 | 0.987 | 1.01 | 0.884 | 0.861 | 0.929 | 0.905 | 0.75 | 0.967 | 0.987 | 1.01 | 0.999 | 0.868 | 1.18 | 1.24 | 1.3 | 1.28 | 1.19 |
| NCI-H1650 | 0.727 | 1.29 | 0.913 | 0.93 | 0.612 | 0.774 | 0.884 | 0.789 | 0.678 | 0.979 | 0.816 | 0.862 | 0.859 | 0.705 | 0.795 | 1.52 | 1.31 | 1.22 | 0.935 |
| NCI-H650 | 0.85 | 1.04 | 0.835 | 1.01 | 0.877 | 0.769 | 0.969 | 0.874 | 0.696 | 0.873 | 0.964 | 0.853 | 0.867 | 0.889 | 1.11 | 1.07 | 0.952 | 1.04 | 1.05 |
| NCI-H460 | 0.963 | 1.05 | 1.02 | 1.06 | 0.742 | 0.95 | 0.968 | 0.96 | 0.989 | 0.968 | 0.96 | 0.977 | 0.945 | 0.925 | 1.18 | 1.11 | 0.972 | 1 | 0.569 |
| HCC-44 | 1.03 | 1 | 0.997 | 0.956 | 0.991 | 1.01 | 0.966 | 0.962 | 0.77 | 0.991 | 1.03 | 1.03 | 0.99 | 1.03 | – | – | – | – | – |
| NCI-H522 | 0.889 | 0.962 | 1.13 | 0.966 | 0.966 | 0.997 | 0.996 | 0.928 | 0.915 | 0.909 | 0.795 | 1.17 | 0.927 | 1.01 | – | – | – | – | – |
| NCI-H1648 | 0.644 | 0.68 | 0.755 | 0.794 | 0.739 | 0.719 | 1.04 | 0.745 | 0.792 | 0.736 | 0.656 | 0.974 | 0.686 | 0.873 | – | – | – | – | – |
